Laboratory results reported in patent US5416231A, “Prostaglandin I2 derivatives” (Asahi Glass Company, Ltd., priority 1990, dated 1995).
≈ marks a conversion by molar mass, not a printed value. Where a name gives a salt, the structure may show the parent alone.

Key:
platelet aggregation [1] = assay: Inhibitory activities on platelet aggregation, in vitro (ADP-induced); assay type: cell-based, guinea pig (Hartley strain); details: platelet rich plasma, 10 minutes incubation, adenosine diphosphate 1 micro M; for IC50: Cavia porcellus, Platelet, 10 min
Description: (§1) From a guinea pig (Hartley strain), citric acid-added blood was obtained by a cardiac puncture. The blood was centrifuged at 120×g for 10 minutes, and the supernatant platelet rich plasma was separated. Measurement of platelet aggregation was conducted by means of an aggregometer in accordance with the Bone's nephelometry (G. V. R. Bone; Nature, vol 194, p 927, 1962). In a test in vitro, a test compound was added to the platelet rich plasma, and the mixture was incubated for 10 minutes. Then, adensoine diphosphate (1 micro M) was added to induce platelet aggregation. The degree of aggregation was represented by the maximum change in the light transmittance (the maximum aggregation rate) within 5 minutes after the addition of adenosine diphosphate, and the results are shown by a 50% inhibitory concentration. In a test ex vivo, a test compound was dissolved in ethanol, then suspended in a 0.5% tragacanth solution or in a 1% β-cyclodextrin solution and orally administered. From blood obtained by a cardiac puncture 30 minutes after the administration, a platelet rich plasma was prepared, and platelet aggregation was measured in the same manner as in the case of the test in vitro.

platelet aggregation [2] = assay: Inhibitory activities on platelet aggregation, ex vivo after oral administration (ADP-induced); assay type: in vivo, guinea pig (Hartley strain); details: 30 minutes after administration; for minimal effective dose: Cavia porcellus, Platelet, 0.5 h, read-out: ex vivo MED (minimum effective dose showing significant inhibitory effects, P < 0.05)
Description: as §1

[3] = tested on: vasopressin-induced ST depression; assay: Anti-anginal activities (Preventive activities on vasopressin-induced ST depression); assay type: in vivo, male rat (Donryou strain); details: for minimal effective dose: Rattus norvegicus, read-out: Oral administration MED (minimum effective dose showing a significant preventive activity); for minimal effective dose / Oral administration MED (minimum effective dose showing a significant preventive activity): oral, 30 minutes prior to vasopressin (0.2 IU/kg)
Description: Vasopressin (0.2 IU/kg) was administered from the femoral vein of a male rat (Donryou strain) anesthetized with pentobarbital, and the electrocardiogram was recorded for 5 seconds each at intervals of 30 seconds over a period of 5 minutes after the administration. The depression of ST-segment (the average of five pulses) was calculated on the electrocardiogram. The test compound was dissolved in ethanol and intravenously administered 2 minutes prior to the administration of vasopressin, or after being dissolved in ethanol, suspended in a 0.5% tragacanth solution or in a 1% β-cyclodextrin solution and orally administered 30 minutes prior to the administration of vasopressin. The differences of the ST depression between the test compound-administered group and the non-treated control group (5 animals for each group) were analysed by two-way layout analysis of variance.

male mice of ddY strain = assay: Acute toxicity, oral; assay type: in vivo; details: 20 mg/kg, 1% β-cyclodextrin solution, 7 days
Description: To male mice of ddY strain weighing 25-32 g (five animals per each group), a predetermined dose of a test compound dissolved in a small amount of ethanol and then diluted with a 1% β-cyclodextrin solution, was orally administered, and the mortality was recorded over a period of 7 days after the administration.

[4] = Solvent Y: 1% β-cyclodextrin solution
[5] = Solvent X: 0.5% tragacanth solution

Row | Compound | in vitro IC50 (platelet aggregation [1]) | minimal effective dose (platelet aggregation [2]; [4]) | IC50 (platelet aggregation [1]) | further results
1 | methyl ester of (1S*,3R*)-2,4-ethylene-7α-flouro-17,20-dimethylPGI2 [Compound C] | 5.50 ng/mL | – | – | –
2 | CCCCC(C)C[C@H](O)/C=C/[C@@H]1[C@@H]2[C@H](C[C@H]1O)O/C(=C\C1CC(C(=O)O)C1)[C@@H]2F (single isomer, unassigned) [Compound E-b, sodium salt of 2,4-methylene-7α-fluoro-17,20-dimethylPGI2] | 1.70 ng/mL | 0.3 mg/kg | – | minimal effective dose [3, 4]: 0.1 mg/kg; Number of dead animals/Number of test animals (male mice of ddY strain): 0/5
3 | CCCCC(C)C[C@H](O)/C=C/[C@@H]1[C@@H]2[C@H](C[C@H]1O)O/C(=C\C1CC(C(=O)OC)C1)[C@@H]2F (stereo partly drawn) [Compound D-b, methyl ester of 2,4-methylene-7α-fluoro-17,20-dimethylPGI2] | 1.50 ng/mL | – | – | ex vivo MED (minimum effective dose showing significant inhibitory effects, P < 0.05) (platelet aggregation [2]; [4]): 0.3 mg/kg; minimal effective dose [3, 4]: 0.1 mg/kg; Number of dead animals/Number of test animals (male mice of ddY strain): 0/5
4 | CCCCC(C)C[C@H](O)/C=C/[C@@H]1[C@@H]2[C@H](C[C@H]1O)O/C(=C\CC1CC1C(=O)O)[C@@H]2F (stereo partly drawn) [Compound A, sodium salt of 2,3-methylene-7α-fluoro-17,20-dimethylPGI2] | – | – | 18.3 ng/mL | –
5 | CCCCC(C)C[C@H](O)/C=C/[C@@H]1[C@@H]2[C@H](C[C@H]1O)O/C(=C\C1CC(C(=O)O)C1)[C@@H]2F (single isomer, unassigned) [Compound E-a, sodium salt of 2,4-methylene-7α-fluoro-17,20-dimethylPGI2] | – | – | 1.13 ng/mL | Oral administration MED (minimum effective dose showing a significant preventive activity) [3, 4]: 0.1 mg/kg
6 | methyl ester of (1S*,3S*)-2,4-ethylene-7α-fluoro-17,20-dimethylPGI2 [Compound B-b] | 0.87 ng/mL | – | – | ex vivo MED (minimum effective dose showing significant inhibitory effects, P < 0.05) (platelet aggregation [2]; [5]): 0.3 mg/kg; Intravenous administration MED (minimum effective dose showing a significant preventive activity) ([3]; intravenous, in ethanol, 2 minutes prior to vasopressin (0.2 IU/kg)): 0.001 mg/kg; Oral administration MED (minimum effective dose showing a significant preventive activity) [3, 5]: 0.01 mg/kg
7 | CCCCC[C@H](O)/C=C/[C@@H]1[C@H]2C/C(=C/CCCC(=O)O)O[C@H]2C[C@H]1O [Compound F, natural PGI2, reference compound] | – | > 10 mg/kg | – | –
8 | CCCCC(C)C[C@H](O)/C=C/[C@@H]1[C@@H]2[C@H](C[C@H]1O)O/C(=C\C1CC(C(=O)OC)C1)[C@@H]2F (stereo partly drawn) [Compound D-a, methyl ester of 2,4-methylene-7α-fluoro-17,20-dimethylPGI2] | – | 0.3 mg/kg | 2.88 ng/mL (≈ 6.78 nM) | –
